Reference: patent US5028609A, “Alkyl diamine derivatives” (Alkaloida Vegyeszeti Gyar, priority 1983, dated 1991)

Legend:
[1] = test system: aconitine arrhythmia on rats; assay: preventive aconitine arrhythmia test on rats; format: in vivo, rats of Wistar strain; conditions: for arrhythmia appearance time: ± S.E., 30 min monitoring; for responders at 4 mg/kg: read-out: positive cases, 4.0 mg/kg i.v., 2 min before aconitine
Method: The antiarrhythmic activity of the compounds of the Formula I was compared in a preventive aconitine arrhythmia test on rats as follows:
rats of Wistar strain weighing 200 to 250 g. were narcotized i.p. with 1.25 g./kg. of urethane and their ECG was registered by a Hellige equipment by II standard limb head.
Arrhythmia was induced by an i.v. infusion of 30 /ug/kg. aconitine nitrate whereafter the ECG was continuously monitored for 30 minutes.
Those cases were considered positive, where within 30 minutes after the aconitine infusion not a single phase of the arrhythmia occurred.
In control animals pretreated i.v. with a 0.9% sodium chloride solution (0.1 ml./100 g.) (n=20) the arrhythmogenic activity of the aconitine nitrate appeared after 2.88±0.32 minutes.
Per cent values of the positive cases, average time of the appearance of the arrhythmia-when the induced arrhythmia appeared within 30 minutes and toxicity values are shown.

[2] = test system: arrhythmia in rats; assay: arrhythmia test carried out in rats according to Zetler and Strubelt (ED125, ED150); format: in vivo; conditions: Rattus norvegicus, iv
Method: In cases of compounds having outstanding antiarrhythmic activity ED125 and ED150 values were calculated in arrhythmia test carried out in rats according to Zetler and Strubelt (Arzneim.-Forsch.) Drug.

[3] = test system: white mice; assay: acute intravenous toxicity, method of Litchfield and Wilcoxon; format: in vivo; conditions: i.v.
Method: (§1) The acute intravenous (i.v.) toxicity values of the testcompounds was determined by the method of Litchfield and Wilcoxon and as test-animals white mice of both sexes were used (J. of Pharmacol. 1949, 96, 99.).

[4] = as above; format: in vivo; conditions: mouse, in vivo, iv, mice
Method: as §1

[5] = Rattus norvegicus, iv, 0.5 h, no arrhythmia within 30 min = positive

## COc1cc(C(=O)NCCCNC(=O)C2=CC(C)(C)NC2(C)C)cc(OC)c1OC [I/2]
[1]; 12.0 mg/kg i.v.
  arrhythmia appearance time: 16.7 ± 1.7 min
[1]; Rattus norvegicus, iv, 0.5 h, read-out: positive cases, 12.0 mg/kg i.v., 2 min before aconitine, no arrhythmia within 30 min = positive
  responders at 12 mg/kg: 70%
[2]
  ED125: 7.6 mg/kg
  ED150: 12.3 mg/kg
[3]
  LD50: 119 mg/kg

## CC=Cc1ccc(OCC(=O)NCCCNC(=O)C2=CC(C)(C)NC2(C)C)c(OC)c1 [I/8]
[1]; 3.0 mg/kg i.v.
  arrhythmia appearance time: > 30 min
[1]; Rattus norvegicus, iv, 0.5 h, read-out: positive cases, 3.0 mg/kg i.v., 2 min before aconitine, no arrhythmia within 30 min = positive
  responders at 3 mg/kg: 100%
[2]
  ED125: 1.5 mg/kg
  ED150: 2.2 mg/kg
[4]
  LD50: 30 mg/kg

## C=CCc1ccc(OCC(=O)NCCCNC(=O)C2=CC(C)(C)NC2(C)C)c(OC)c1 [I/9, N-(2-methoxy-4-allyl)-phenoxy-acetyl-N'-(2,2,5,5-tetramethyl-3-pyrroline-3-carbonyl)-1,3-propylene-diamine]
[1]; 1.9 mg/kg i.v.
  arrhythmia appearance time: > 30 min
[1]; Rattus norvegicus, iv, 0.5 h, read-out: positive cases, 1.9 mg/kg i.v., 2 min before aconitine, no arrhythmia within 30 min = positive
  responders at 1.9 mg/kg: 100%
[2]
  ED125: 0.7 mg/kg
  ED150: 1.4 mg/kg
[3]
  LD50: 19 mg/kg

## C=CCc1cc(C)ccc1OCC(=O)NCCCNC(=O)C1=CC(C)(C)NC1(C)C [I/11]
[1]; 1.4 mg/kg i.v.
  arrhythmia appearance time: 20.1 ± 2.5 min
[1]; Rattus norvegicus, iv, 0.5 h, read-out: positive cases, 1.4 mg/kg i.v., 2 min before aconitine, no arrhythmia within 30 min = positive
  responders at 1.4 mg/kg: 80%
[2]
  ED125: 1.4 mg/kg
  ED150: 2.4 mg/kg
[3]
  LD50: 14 mg/kg

## CC1(C)C=C(C(=O)NCCCNC(=O)CSc2ccccc2)C(C)(C)N1 [I/12]
[1]; 4.0 mg/kg i.v.
  arrhythmia appearance time: 28.5 min
[1]; [5]
  responders at 4 mg/kg: 90%
[2]
  ED125: 4.6 mg/kg
  ED150: 6.95 mg/kg
[3]
  LD50: 38 mg/kg

## CC1(C)C=C(C(=O)NCCCNC(=O)Cc2cccs2)C(C)(C)N1 [I/19]
[1]; 7.0 mg/kg i.v.
  arrhythmia appearance time: 27.5 ± 2.5 min
[1]; Rattus norvegicus, iv, 0.5 h, read-out: positive cases, 7.0 mg/kg i.v., 2 min before aconitine, no arrhythmia within 30 min = positive
  responders at 7 mg/kg: 80%
[2]
  ED125: 2 mg/kg
  ED150: 3.1 mg/kg
[3]
  LD50: 71 mg/kg

## CC=Cc1ccc(OCC(=O)NCCNC(=O)C2=CC(C)(C)NC2(C)C)c(OC)c1 [I/21]
[1]; 4.0 mg/kg i.v.
  arrhythmia appearance time: > 30 min
[1]; [5]
  responders at 4 mg/kg: 100%
[2]
  ED125: 2.4 mg/kg
  ED150: 4.1 mg/kg
[4]
  LD50: 18 mg/kg

## CC=Cc1ccc(OC(C)C(=O)NCCCNC(=O)C2=CC(C)(C)NC2(C)C)c(OC)c1 (stereo not drawn) [I/22]
[1]; 4.0 mg/kg i.v.
  arrhythmia appearance time: > 30 min
[1]; [5]
  responders at 4 mg/kg: 100%
[2]
  ED125: 1.9 mg/kg
  ED150: 2.7 mg/kg
[4]
  LD50: 14 mg/kg

## CC1(C)C=C(C(=O)NCCNCc2cccs2)C(C)(C)N1 [I/36]
[1]; 4.0 mg/kg i.v.
  arrhythmia appearance time: 15.9 ± 0.3 min
[1]; [5]
  responders at 4 mg/kg: 70%
[2]
  ED125: 4.5 mg/kg
  ED150: 7.6 mg/kg
[4]
  LD50: 49 mg/kg

## CC1(C)C=C(C(=O)NCCCNCc2ccccc2)C(C)(C)N1 [I/38]
[1]; 4.0 mg/kg i.v.
  arrhythmia appearance time: 27.5 min
[1]; [5]
  responders at 4 mg/kg: 90%
[2]
  ED125: 2.2 mg/kg
  ED150: 3.6 mg/kg
[3]
  LD50: 26 mg/kg

## CC1(C)C=C(C(=O)NCCCNCc2cccs2)C(C)(C)N1 [I/44]
[1]; Rattus norvegicus, iv, 0.5 h, read-out: positive cases, 6.5 mg/kg i.v., 2 min before aconitine, no arrhythmia within 30 min = positive
  responders at 6.5 mg/kg: 100%

## CC1(C)C=C(C(=O)NCCCCNCc2cccs2)C(C)(C)N1 [I/49]
[1]; 2.8 mg/kg i.v.
  arrhythmia appearance time: 10.0 min
[1]; Rattus norvegicus, iv, 0.5 h, read-out: positive cases, 2.8 mg/kg i.v., 2 min before aconitine, no arrhythmia within 30 min = positive
  responders at 2.8 mg/kg: 90%
[2]
  ED125: 2.3 mg/kg
  ED150: 4.7 mg/kg
[3]
  LD50: 28 mg/kg

## CC1(C)CC(C(=O)NCCCNCc2cccs2)C(C)(C)N1 (stereo not drawn) [I/50]
[1]; 4.3 mg/kg i.v.
  arrhythmia appearance time: 30 min
[1]; Rattus norvegicus, iv, 0.5 h, read-out: positive cases, 4.3 mg/kg i.v., 2 min before aconitine, no arrhythmia within 30 min = positive
  responders at 4.3 mg/kg: 100%
[2]
  ED125: 2.7 mg/kg
  ED150: 4.2 mg/kg
[3]
  LD50: 43 mg/kg

## CC1(C)CC(C(=O)NCCCNCc2ccc(C(F)(F)F)cc2)C(C)(C)N1 (stereo not drawn) [I/52]
[1]; 4.0 mg/kg i.v.
  arrhythmia appearance time: 7.3 min
[1]; [5]
  responders at 4 mg/kg: 90%
[2]
  ED125: 2.1 mg/kg
  ED150: 2.9 mg/kg
[3]
  LD50: 39 mg/kg

## CC1(C)C=C(C(=O)NCCCNCc2ccsc2)C(C)(C)N1 [I/53]
[1]; 4.0 mg/kg i.v.
  arrhythmia appearance time: 30 min
[1]; [5]
  responders at 4 mg/kg: 100%
[2]
  ED125: 3.4 mg/kg
  ED150: 5.5 mg/kg
[3]
  LD50: 28 mg/kg

## CC1(C)CC(C(=O)NCCCNCc2ccsc2)C(C)(C)N1 (stereo not drawn) [I/54]
[1]; 4.0 mg/kg i.v.
  arrhythmia appearance time: 5.2 ± 0.8 min
[1]; [5]
  responders at 4 mg/kg: 70%
[2]
  ED125: 6.9 mg/kg
  ED150: 13.2 mg/kg
[3]
  LD50: 19 mg/kg

## CC1(C)C=C(C(=O)NCCCN2C(=O)C3CC=CCC3C2=O)C(C)(C)N1 (stereo not drawn) [I/58]
[1]; 11.3 mg/kg i.v.
  arrhythmia appearance time: 13.1 ± 2.5 min
[1]; Rattus norvegicus, iv, 0.5 h, read-out: positive cases, 11.3 mg/kg i.v., 2 min before aconitine, no arrhythmia within 30 min = positive
  responders at 11.3 mg/kg: 50%
[3]
  LD50: 113 mg/kg

## CC1(C)C=C(C(=O)NCCN2C(=O)c3ccccc3C2=O)C(C)(C)N1 [I/59]
[1]; 5.5 mg/kg i.v.
  arrhythmia appearance time: 30 min
[1]; Rattus norvegicus, iv, 0.5 h, read-out: positive cases, 5.5 mg/kg i.v., 2 min before aconitine, no arrhythmia within 30 min = positive
  responders at 5.5 mg/kg: 100%
[2]
  ED125: 4.2 mg/kg
  ED150: 7.9 mg/kg
[3]
  LD50: 55 mg/kg

## CC1(C)C=C(C(=O)NCCCN2C(=O)c3ccccc3C2=O)C(C)(C)N1 [I/60]
[1]; 2.3 mg/kg i.v.
  arrhythmia appearance time: 26.0 min
[1]; Rattus norvegicus, iv, 0.5 h, read-out: positive cases, 2.3 mg/kg i.v., 2 min before aconitine, no arrhythmia within 30 min = positive
  responders at 2.3 mg/kg: 90%
[2]
  ED125: 1.4 mg/kg
  ED150: 2.6 mg/kg
[3]
  LD50: 23 mg/kg

## CC1(C)C=C(C(=O)NCC(O)CN2C(=O)c3ccccc3C2=O)C(C)(C)N1 (stereo not drawn) [I/61]
[1]; 4.0 mg/kg i.v.
  arrhythmia appearance time: 30 min
[1]; [5]
  responders at 4 mg/kg: 100%
[2]
  ED125: 1.9 mg/kg
  ED150: 3 mg/kg
[3]
  LD50: 28 mg/kg

## CC1(C)CC(C(=O)NCCCN2C(=O)c3ccccc3C2=O)C(C)(C)N1 (stereo not drawn) [I/62]
[1]; 4.0 mg/kg i.v.
  arrhythmia appearance time: 30 min
[1]; [5]
  responders at 4 mg/kg: 100%
[2]
  ED125: 2.6 mg/kg
  ED150: 4.5 mg/kg
[3]
  LD50: 22 mg/kg

## CC1(C)C=C(C(=O)NCCCNC(=O)c2ccccc2C(=O)O)C(C)(C)N1 [I/68, N-(2,2,5,5-tetramethyl-3-pyrroline-3-carbonyl)-N'-(2-carboxybenzoyl)-1,3-diaminopropane]
[1]; 41.9 mg/kg i.v.
  arrhythmia appearance time: 4.6 ± 0.7 min
[1]; Rattus norvegicus, iv, 0.5 h, read-out: positive cases, 41.9 mg/kg i.v., 2 min before aconitine, no arrhythmia within 30 min = positive
  responders at 41.9 mg/kg: 40%
[3]
  LD50: 419 mg/kg

## Cc1nc2ccccc2c(=O)n1CCCNC(=O)C1=CC(C)(C)NC1(C)C [I/70, 2-Methyl-3-[3-(2,2,5,5-tetramethyl-3-pyrroline-3-carbonyl-amino)-propyl]-quinazoline-4(3H)-one]
[1]; 4.0 mg/kg i.v.
  arrhythmia appearance time: 30 min
[1]; [5]
  responders at 4 mg/kg: 100%
[2]
  ED125: 2.5 mg/kg
  ED150: 4.5 mg/kg
[3]
  LD50: 31 mg/kg

## CCc1nc2ccccc2c(=O)n1CCNC(=O)C1=CC(C)(C)NC1(C)C [I/71]
[1]; 4.0 mg/kg i.v.
  arrhythmia appearance time: 30 min
[1]; [5]
  responders at 4 mg/kg: 100%
[2]
  ED125: 3.8 mg/kg
  ED150: 10.5 mg/kg
[3]
  LD50: 48 mg/kg

## CCc1nc2ccccc2c(=O)n1CCCNC(=O)C1=CC(C)(C)NC1(C)C [I/72]
[1]; 4.0 mg/kg i.v.
  arrhythmia appearance time: 30 min
[1]; [5]
  responders at 4 mg/kg: 100%
[2]
  ED125: 1.1 mg/kg
  ED150: 1.7 mg/kg
[3]
  LD50: 13 mg/kg

## CCc1nc2ccccc2c(=O)n1CCCNC(=O)C1CC(C)(C)NC1(C)C (stereo not drawn) [I/74]
[1]; 4.0 mg/kg i.v.
  arrhythmia appearance time: 30 min
[1]; [5]
  responders at 4 mg/kg: 100%
[2]
  ED125: 1.9 mg/kg
  ED150: 2.7 mg/kg
[3]
  LD50: 22 mg/kg

## CCN(CC)CCNC(=O)c1ccc(N)cc1 [procainamide, reference compound]
[1]; 8.0 mg/kg i.v.
  arrhythmia appearance time: 9.5 ± 1.2 min
[1]; Rattus norvegicus, iv, 0.5 h, read-out: positive cases, 8.0 mg/kg i.v., 2 min before aconitine, no arrhythmia within 30 min = positive
  responders at 8 mg/kg: 30%
[2]
  ED125: 11 mg/kg
  ED150: 14 mg/kg
[4]
  LD50: 141 mg/kg

## C=C[C@H]1C[N@@]2CC[C@H]1C[C@@H]2[C@@H](O)c1ccnc2ccc(OC)cc12 [quinidine, reference compound]
[1]; 9.5 mg/kg i.v.
  arrhythmia appearance time: 10.0 ± 0.4 min
[1]; Rattus norvegicus, iv, 0.5 h, read-out: positive cases, 9.5 mg/kg i.v., 2 min before aconitine, no arrhythmia within 30 min = positive
  responders at 9.5 mg/kg: 70%
[2]
  ED125: 7.8 mg/kg
  ED150: 10.8 mg/kg
[4]
  LD50: 95 mg/kg
